According to patent US20130005699A1, “METHODS AND PRODUCTS FOR TREATMENT OF DISEASES” (DMI ACQUISITION CORP., priority 2009, published 2013):
Like-named read-outs stand apart in the source and are kept apart here.

Columns and labels:
RhoA = test: Rho activation assay (GLISA) in retinal endothelial cells; format: cell-based, human
Experimental: This experiment was performed using a commercially-available Rho activation assay (GLISA) purchased from Cytoskeleton, Denver, Colo., following the manufacturer's protocol. […] Test compounds diluted in HBSS were placed in the incubator to equilibrate before addition to the cells. Then, 150 μl of each test compound was added to the appropriate culture wells, and the plates were incubated in the incubator for an additional 15 minutes. Then, thrombin was added to appropriate wells. After 1 minute, the cells were washed one time with 1.5 ml phosphate buffered saline and were then lysed with 100 μl GLISA lysis buffer supplemented with protease inhibitors. The extracts were scraped, transferred to microcentrifuge tubes and transferred to ice to preserve the active form of RhoA. All extracts were then cleared of debris by spinning at 10,000 rpms for 2 minutes at 4° C. The supernatants were transferred to new tubes and placed back on ice. Aliquots of each extract were removed for the GLISA assay and for protein determinations. All protein concentrations were within 10%, and the extracts were used at the achieved concentrations (equates to 15 μg total protein per well). The GLISA assay was performed using the reagents supplied in the kit.

[1] = test system: Human Brain Endothelial Cells; test: TER of endothelial cell monolayers (Example 4), brain; format: cell-based; details: Danazol 1.0 μM, TER measurements/cm^2 of insert, blank subtracted
Experimental: (§1) […]. Assays were also performed in the same manner using passage 8 human brain endothelial cells and passage 8 human umbilical vein endothelial cells.
(§2) An initial TER measurement was taken for each insert using EVOM^2 voltohmmeter connected to an STX100 electrode (both from World Precision Instruments). Measurements were also taken at 24, 48, 72 and 144 hours. All data are presented as TER measurements/cm^2 of insert with TER of blank inserts subtracted.

HUVECs = test: HUVEC tube formation on matrigel plugs; format: cell-based, human; details: 18 hours, 5% FCS
Experimental: To investigate the formation of capillary-like structures by HUVECs, the Angiogenesis System Endothelial Cell Tube Formation Assay was purchased from BD Biosciences (San Jose, Calif.) and used according to the manufacturer's protocol. In brief, 100,000 HUVECs were seeded onto rehydrated matrigel plugs in 96 well tissue culture plates in the presence of 5% FCS to induce tube formation. […] After 18 hours the wells were photographed using a Kodak DCS Pro SLR/N digital camera (Rochester, N.Y.) mounted on an inverted microscope. Ethanol treated wells were included to determine if the vehicle had any effects on cell differentiation.

[2] = test system: Human Umbilical Vein Endothelial Cells; test: TER of endothelial cell monolayers (Example 4), umbilical vein; format: cell-based; details: Danazol 1.0 μM, TER measurements/cm^2 of insert, blank subtracted
Experimental: as §1, §2

[3] = test system: human retinal endothelial cells; test: Actin stress fiber formation, rhodamine-phalloidin staining, VEGF (Example 8); format: cell-based; details: for change of the VEGF stress fiber pattern: then VEGF 25 ng/ml 30 minutes; for F-actin staining pattern: no VEGF
Experimental: . […] To counter-stain for nuclei, 100 μl of a 3 μM DAPI (4,6-diamidino-2-phenylindole, dilactate (Invitrogen)) solution was added to each well. After 5 minutes, the cells were washed two times with 100 μl PBS.

[4] = test system: Primary human umbilical vein endothelial cells (HUVECs); test: HUVEC cell proliferation (Celltiter 96 AQueous One Solution assay); format: cell-based
Experimental: Primary human umbilical vein endothelial cells (HUVECs) and EGM-2 growth medium were obtained from Cambrex (Walkersville, Md.). The cells were passaged in medium supplemented with 2% fetal calf serum (FCS) in tissue culture flasks at 37° C. and 5% CO2. Subculturing was performed using trypsin when 60-80% confluence was obtained as specified by the supplier.
Cryopreserved ampoules of passage 2 HUVECs were thawed and plated in 96 well tissue culture plates at 5,000 cells/cm^2. […] In short, medium was aspirated from each well and the cells were washed with 200 μl […] (HBSS) from Cambrex warmed to 37° C. 100 μl diluted celltiter solution (15 μl stock+85 μl EGM-2 containing 0.1% FCS) were added to each well and incubated for an additional 4 hours. Optical density was determined by microplate reader using a 530 nm filter after blank subtraction and data presented as OD±standard deviation.
All data are presented as representative experiment done in triplicate. Differences between subsets were analyzed using student t-test in Microsoft Excel. P<0.05 was considered statistically significant.

[5] = passage 8 cells, 0.1 U/ml Thrombin + 1.0 μM compound
[6] = passage 12 cells, 0.1 U/ml Thrombin + 1.0 μM compound
[7] = Homo sapiens, HUVEC, 24 h, read-out: percent inhibition
[8] = Homo sapiens, HUVEC, 48 h, read-out: percent inhibition
[9] = Homo sapiens, HUVEC, 72 h, read-out: inhibition

C#C[C@]1(O)CC[C@H]2[C@@H]3CCC4=Cc5oncc5C[C@]4(C)[C@H]3CC[C@@]21C [Danazol, 17α-pregna-2,4-dien-20-yno[2,3-d]-isoxazol-17β-ol]
Percent Inhibition vs. Untreated Control (RhoA; passage 8 cells, 1.0 μM): 73.89%
Mean OD (active RhoA) (RhoA; passage 8 cells, 1.0 μM, no thrombin, Untreated 0.102): 0.027
Mean OD (active RhoA) (RhoA; [5]): 0.373
Percent Inhibition vs. Thrombin (RhoA; [5]): 41.02%
Percent Inhibition vs. Untreated Control (RhoA; passage 12 cells, 1.0 μM): 6.82%
Mean OD (active RhoA) (RhoA; passage 12 cells, 1.0 μM, no thrombin, Untreated 0.455): 0.424
Mean OD (active RhoA) (RhoA; [6]): 0.859
Percent Inhibition vs. Thrombin (RhoA; [6]): 27.57%
TER at 0 Hours ([1]; None 41.4): 32.3
TER at 24 Hours ([1]; None 115.7): 139.9
TER at 144 Hours ([1]; None 151.5): 125.8
TER at 72 Hours ([1]; None 154.0): 149.5
TER at 48 Hours ([1]; None 176.3): 188.4
effect on tube formation (HUVECs; 1 μM): no effect on tube formation
effect on tube formation (HUVECs; 10 μM): no effect on tube formation
effect on tube formation (HUVECs; 50 μM): effective inhibitor of tube formation
TER at 0 Hours ([2]; None 82.3): 70.2
TER at 24 Hours ([2]; None 217.2): 246.0
TER at 72 Hours ([2]; None 226.8): 270.7
TER at 144 Hours ([2]; None 227.3): 286.4
TER at 48 Hours ([2]; None 276.3): 364.1
change of the VEGF stress fiber pattern ([3]; danazol 0.1 μM 30 minutes): made the stress fibers less pronounced and some diffuse staining appeared
F-actin staining pattern ([3]; danazol 0.1 μM): diffuse F-actin staining throughout the cytoplasm
change of the VEGF stress fiber pattern ([3]; danazol 1.0 μM 30 minutes): showed fewer thick stress fibers, but focal points were seen on contact surfaces
F-actin staining pattern ([3]; danazol 1.0 μM): the diffuse staining persisted, but stress fibers and focal points around the perimeter of most cells were visible
change of the VEGF stress fiber pattern ([3]; danazol 10.0 μM 30 minutes): showed strong stress fiber development with focal points
F-actin staining pattern ([3]; danazol 10.0 μM): stress fiber development and focal points were seen
OD ([4]; 0.1 μM danazol, 72 hours, nil wells 1.113±0.054): 0.798±0.037
OD ([4]; 1 μM danazol, 48 hours, nil 0.629±0.095): 0.378±0.037
OD ([4]; 1 μM danazol, 72 hours, nil wells 1.113±0.054): 0.484±0.022
OD ([4]; 10 μM danazol, 24 hours, nil wells 0.414±0.06): 0.288±0.037
OD ([4]; 10 μM danazol, 48 hours, nil 0.629±0.095): 0.241±0.012
OD ([4]; 10 μM danazol, 72 hours, nil wells 1.113±0.054): 0.229±0.016
OD ([4]; 100 μM danazol, 24 hours, nil wells 0.414±0.06): 0.162±0.017
OD ([4]; 100 μM danazol, 48 hours, nil 0.629±0.095): 0.19±0.033
OD ([4]; 100 μM danazol, 72 hours, nil wells 1.113±0.054): 0.156±0.018
effect on cell proliferation ([4]; 100 μM danazol, all time points): complete arrest of cell proliferation
inhibition at 10 µM [4, 7]: 30%
inhibition at 100 µM [4, 7]: 65%
inhibition at 1 µM [4, 8]: 40%
inhibition at 10 µM [4, 8]: 61%
inhibition at 100 µM [4, 8]: 70%
inhibition at 0.1 µM ([4]; Homo sapiens, HUVEC, 72 h): 28%
inhibition at 1 µM [4, 9]: 57%
inhibition at 10 µM [4, 9]: 80%
inhibition at 100 µM [4, 9]: 86%
